“And” between values parts separate entries of the source, which are not always exact repeats. Equal entries are not always repeated.
Each compound was assayed against Nonstructural protein 3 (Zika virus, UniProt A0A024AXB9) (assay: Functional biochemical assay to identify treatments for viral infectious disease that targets Zika NS2B-NS3 protease. Utilizing a direct enzyme activity measurement method, reading the fluorescence intensity is used to characterize the relative potency of inhibitors as IC50.).
Set-up: species or system PRVABC59

Sequence of Nonstructural protein 3 (A0A024AXB9 whole entry): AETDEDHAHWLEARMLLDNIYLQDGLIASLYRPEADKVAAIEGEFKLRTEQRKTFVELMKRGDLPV

Row | Structure (SMILES) | IC50
1 | O=C(Nc1cc(Cl)cc(C(=O)Nc2ccc3c(c2)C(=O)OC3)c1)OCc1ccccc1 | > 99.5 µM
2 | Cc1c[nH]nc1CN1CCC(c2cscn2)CC1 | > 99.5 µM
3 | CNCCS(=O)(=O)N1CCC([C@H](NC(=O)OCc2ccccc2)C(=O)Nc2cccc(CN)c2)CC1 | > 99.5 µM
4 | COc1ccc(COc2ccc(S(=O)(=O)Nc3ccc(Cl)cc3C(=O)O)cc2)nc1 | > 99.5 µM
5 | O[C@@H]1CNC[C@H]1c1c[nH]c2ccccc12 | > 99.5 µM
6 | O=C(O)c1cc(Cl)ccc1S(=O)(=O)NC1CCN(c2ccc(C(F)(F)F)cn2)CC1 | > 99.5 µM
7 | O=C(O)Cn1ccnc(N2CC[C@@H](CO)C2)c1=O | > 99.5 µM
8 | O=C(Nc1cccc(-n2nn[nH]c2=O)c1)c1cc(Cl)cc2c1CCC2 | > 99.5 µM
9 | CC(C)[C@H](NC(=O)c1cc(Cl)cc(NC(=O)OCc2ccccc2)c1)c1nn[nH]n1 | > 99.5 µM
10 | NCc1cc(Cl)ccc1NS(=O)(=O)c1ccc(Oc2ccccc2Cl)cc1 | > 99.5 µM
11 | CCn1cc(-c2ccnc(C)c2)nc(N2CC[C@@H](CO)C2)c1=O | > 99.5 µM
12 | NCc1cccc(NC(=O)[C@H](NC(=O)OCc2ccccc2)C2CCN(Cc3ccccc3)CC2)c1 | > 99.5 µM
13 | c1ccc2c([C@H]3CCN(C[C@H]4CCOC4)C3)c[nH]c2c1 | > 99.5 µM
14 | O=C(NCC1CC1)[C@H]1CCCC[C@H]1NS(=O)(=O)c1ccc(Oc2ccccc2Cl)cc1 | > 99.5 µM
15 | O=C(Nc1cccc([C@@H]2C[C@H]2C(=O)O)c1)c1cc(Cl)cc2[nH]ncc12 | > 99.5 µM
16 | CCn1c(=O)c(N2C[C@@H]3CS(=O)(=O)C[C@@H]3C2)nc2ccccc21 | > 99.5 µM
17 | O=C(Nc1cccc(-c2nnn[nH]2)c1)c1cc(Cl)cc(C2CC2)c1 | > 99.5 µM
18 | Cc1ocnc1COc1cccc([C@H](NC(=O)OCc2ccccc2)C(=O)Nc2cccc(CN)c2)c1 | > 99.5 µM
19 | CCc1cc(C(=O)Nc2cccc(-c3nnn[nH]3)c2)sc1-c1ccc(Cl)cc1 | 11.8 µM and 16.7 µM
20 | O=C(NCc1cc(Cl)ccc1NS(=O)(=O)c1ccc(Oc2ccccc2Cl)cc1)C1CC1 | > 99.5 µM
21 | Cc1nc2cc(Cl)ccc2cc1C(=O)Nc1ccc2c(c1)CNC2 | > 25 µM
22 | CN1C[C@H](c2cccc(CN)c2)[C@@H](c2cc(Cl)cc(NC(=O)OCc3ccccc3)c2)C1 | > 99.5 µM
23 | O=C(O)c1nscc1NS(=O)(=O)c1ccc(Oc2ccccc2Cl)cc1 | > 99.5 µM
24 | NCc1cccc(NC(=O)[C@H]2COC3(CCOCC3)N2C(=O)OCc2ccccc2)c1 | > 99.5 µM
25 | NC1CN(c2ncccc2NS(=O)(=O)c2ccc(Oc3ccccc3Cl)cc2)C1 | > 99.5 µM
26 | CC1(C)CNC[C@H](C(=O)Nc2cccc(CN)c2)C1 | > 99.5 µM

Row | Structure (SMILES) | IC50
27 | O=c1[nH]c2cc(Cl)ccc2n1Cc1ccc(-c2nn[nH]n2)cc1 | > 99.5 µM
28 | NCc1cc(S(=O)(=O)Nc2ccc(Cl)cc2C(=O)O)ccc1Oc1ccccc1 | > 99.5 µM
29 | O=C(O)c1cc(Cl)ccc1S(=O)(=O)Nc1ccc(F)c(NC(=O)C2CC2)c1 | > 99.5 µM
30 | c1cncc(CN2CC[C@H](NCc3c[nH]c4ccccc34)C2)c1 | > 99.5 µM
31 | O=C(Nc1cc(Cl)cc(-c2cnn3ccc(C(=O)O)cc23)c1)OCc1ccccc1 | > 99.5 µM
32 | NC[C@H]1CCN1C(=O)[C@@H](NC(=O)OCc1ccccc1)c1ccc(OCc2ccccc2)cc1 | > 99.5 µM
33 | NCCCc1ccnc(NC(=O)c2nnc(C3CC3)s2)c1 | > 25 µM
34 | CC1(C)CCC(F)(F)C[C@H]1C(=O)Nc1cccc(CN)c1 | > 99.5 µM
35 | O=C(O)c1cscc1NS(=O)(=O)c1ccc(Oc2ccccc2Cl)cc1 | > 99.5 µM
36 | C[C@@H](NC(=O)c1ccc2[nH]cc(C=O)c2c1)C1=CCN(C)CC1 | > 99.5 µM
37 | NCc1cccc(-c2csc3cc(C(=O)Nc4ccc5c(c4)CNC5)ccc23)c1 | 1.71 µM and 1.41 µM
38 | COC(=O)c1cc(Cl)ccc1NS(=O)(=O)c1ccc(Oc2ccccc2Cl)nc1 | > 99.5 µM
39 | COc1n[nH]cc1CN1CCC(c2nc3ccccc3s2)CC1 | > 99.5 µM
40 | Cc1c(C(=O)Nc2cc(CCCN)ccn2)cc(C2CCC2)n1C | > 99.5 µM
41 | NC1(c2ccccc2NS(=O)(=O)c2ccc(Oc3ccccc3Cl)cc2)CC1 | > 99.5 µM
42 | COCCc1ccnc(NC(=O)c2cc(C3CC3)n(C)c2C)c1 | > 25 µM
43 | CC1=NN(c2ccc(NS(=O)(=O)c3ccc(Cl)cc3C(=O)O)cn2)C(=O)C1 | > 99.5 µM
44 | NCc1cccc(NC(=O)[C@@H](NC(=O)OCc2ccccc2)c2cccnc2)c1 | > 99.5 µM
45 | NCc1cccc(CNC(=O)[C@@H](NC(=O)OCc2ccccc2)c2ccc(OCc3ccccc3)cc2)c1 | 19 µM and 11.6 µM
46 | CCn1c(=O)c(N2C[C@@H]3CCO[C@]3(COC)C2)nc2ccccc21 | > 99.5 µM
47 | NCc1cccc(NC(=O)[C@H](NS(=O)(=O)c2cccnc2)c2ccc(OCc3ccccc3)cc2)c1 | > 99.5 µM
48 | O=C(Nc1cc(Cl)cc(C(=O)Nc2cccc([C@H]3C[C@H]3C(=O)O)c2)c1)OCc1ccccc1 | 62.1 µM and 77.7 µM and 77.6 µM
49 | CN(C)[C@@H]1CCC[C@@H](C(=O)Nc2cccc(CN)c2)C1 | > 99.5 µM
50 | c1csc(-c2nnc(Sc3ncnc4sccc34)o2)c1 | > 99.5 µM
51 | C=Cc1cc2c(cc1NC(=O)c1cc(F)cc3[nH]ncc13)CNC2 | 0.045 µM and 0.028 µM
52 | N#Cc1ccccc1O[C@H]1CC[C@H](NS(=O)(=O)c2ccc(Cl)cc2C(=O)O)CC1 | > 99.5 µM

Now from value to compound:

Row | IC50 | Structure (SMILES)
53 | > 25 µM | O=C1Cc2c(cccc2C(=O)NC2CC3(CCOCC3)C2)N1
54 | > 25 µM | Cc1c(C(=O)Nc2cccc(-c3ccc(=O)[nH]n3)c2)cc(C2CC2)n1C
55 | 10.9 µM | Cc1ccc(NC(=O)c2cc(Cl)cc(NC(=O)OCc3ccccc3)c2)cc1CN
56 | 21.2 µM | Cc1cc(C(=O)O)c(NS(=O)(=O)c2ccc(Oc3ccccc3Cl)cc2)cc1F
57 | 13.8 µM | NCc1cc(C(=O)N2CCOCC2)cc([C@@H]2C[C@H]2c2cc(Cl)cc(NC(=O)OCc3ccccc3)c2)c1
58 | 5.99 µM | O=C(Nc1cc(Cl)cc(C(=O)Nc2ccc(C3CNC3)cc2)c1)OCc1ccccc1
59 | 5.66 µM | NCc1cc(NC(=O)c2cc(Cl)cc(NC(=O)OCc3ccccc3)c2)cc([C@@H]2C[C@H]2C(=O)O)c1
60 | 27.6 µM | O=C(Nc1cc(Cl)cc([C@H]2C[C@@H]2c2cccc(-c3nnn[nH]3)c2)c1)OCc1ccccc1
61 | 0.199 µM | COC(=O)[C@H](C)n1cc2c(C(=O)Nc3ccc4c(c3)CNC4)cc(Cl)cc2n1
62 | 8.43 µM | O=C(Nc1nc(O)c2c(n1)CNC2)c1cc(Cl)cc2[nH]ncc12
63 | > 25 µM | COCCNC(=O)[C@H](Nc1cccc([C@H]2CCOC2)c1)c1cc(Br)cc2[nH]ccc12
64 | 1.49 µM | N[C@H]1CCc2ccc(NC(=O)c3cc(Cl)cc4[nH]ncc34)cc21
65 | 0.569 µM | O=C1Cc2c(cccc2C(=O)Nc2ccc3c(c2)CNCCC3)N1
66 | 43.1 µM | O=C(O)c1cc(Cl)ccc1NS(=O)(=O)c1ccc(-c2cscn2)cc1
67 | 0.96 µM | O=C1CCc2c(cccc2C(=O)Nc2ccc3c(c2)CNC3)N1
68 | 26.9 µM | CCOC(=O)[C@H]1[C@H](c2cc(Cl)cc(NC(=O)OCc3ccccc3)c2)[C@H]1c1cccc(-c2nnn[nH]2)c1
69 | > 25 µM | O=C(Nc1ccc2c(c1)CNC2)c1cc(C(F)(F)F)c2cn[nH]c2n1
70 | > 25 µM | Cc1c(C(=O)NCc2ccnc(OC3CCOCC3)c2)cc(C2CC2)n1C
71 | 23.8 µM | CN(C)Cc1cccc(C(=O)Nc2cccc(CN)c2)c1
72 | > 25 µM | COCCNC(=O)[C@H](Nc1cccc([C@H]2CCOC2)c1)c1cc(F)cc2[nH]ccc12
73 | 3.87 µM | N#C[C@H](Nc1ccc2c(c1)CNC2)c1cncc2ccccc12
74 | 2.91 µM | C[C@@H](N)c1ccc(NC(=O)c2cc(Cl)cc3[nH]ncc23)cc1
75 | > 25 µM | O=C1Cc2c(cccc2C(=O)Nc2ccc(Cl)c(CO)n2)N1
76 | 10.9 µM | CC(C)NC(=O)[C@H](Nc1ccc2c(c1)CNC2)c1cccc2cn[nH]c12
77 | 45.2 µM | NCc1cccc(NC(=O)c2cc(Cl)cc3c2OCCNC3)c1
78 | > 25 µM | Cn1nc(C(=O)Nc2cc(-c3cccnc3)ccn2)cc1C1CC1

Row | IC50 | Structure (SMILES)
79 | > 25 µM | O=C1Cc2c(cccc2C(=O)NC[C@H]2C[C@@H](n3cccn3)C2)N1
80 | 3.63 µM | Cc1nc2c(C(=O)Nc3ccc4c(c3)CNC4)cccc2[nH]1
81 | 30.9 µM | O=C(Nc1cc(Cl)cc(C(=O)Nc2ccc(-n3nn[nH]c3=O)cc2)c1)OCc1ccccc1
82 | > 25 µM | CC(C)(C)OC(=O)N1Cc2cc(NC(=O)c3cc(Cl)cc4c3cnn4[C@@H]3CCCCO3)ccc2[C@H]1CO
83 | 21.7 µM | NCc1cccc(NC(=O)[C@@H]2Cc3ccc(OCc4ccccc4)cc3CN2C(=O)OCc2ccccc2)c1
84 | 34.6 µM | CNC(=O)[C@]1(Nc2ccc3c(c2)CNC3)CCc2ccc(Cl)cc21
85 | 18.7 µM | CC[C@@H](Cc1nnn[nH]1)c1ccc(NC(=O)c2cc(Cl)cc(NC(=O)OCc3ccccc3)c2)cc1
86 | > 25 µM | Cc1c(C(=O)Nc2cc(-c3cccnc3)ccn2)cc(-c2ccccc2)n1C
87 | 80 µM | CN(C(=O)c1cc(Cl)cc2[nH]ncc12)c1ccc2c(c1)CNC2
88 | 3.34 µM | O=C(Nc1ccc2c(c1)CNC2)c1cc(Cl)cc2nccnc12
89 | 93.3 µM | NCc1cccc(NC(=O)[C@H](NC(=O)OCc2ccccc2)c2cccc(C3=CCCOC3)c2)c1
90 | 2.97 µM | N[C@H]1CCCc2ccc(NC(=O)c3cc(Cl)cc4[nH]ncc34)cc21
91 | 11 µM | N#Cc1cc(Cl)cc(C(=O)Nc2cccc(CN)c2)c1
92 | 59.4 µM | CCc1cc(C)nc(C2CCN(Cc3c[nH]c4ccccc34)CC2)n1
93 | 40.8 µM | O=C(Nc1cc(Cl)cc(C(=O)Nc2cccc(-c3nnn[nH]3)c2)c1)OCc1ccccc1
94 | 0.121 µM | Cc1cc(C(=O)Nc2ccc3c(c2)CNC3)cc2nc[nH]c12
95 | > 25 µM | O=C(Nc1cc(-c2cccnc2)ccn1)c1cccc(C2CC2)c1
96 | 0.115 µM | O=C(Nc1ccc2c(c1)CNC2)c1cc(F)cc2c1CCNC2
97 | 5.07 µM | NCc1cccc(NC(=O)[C@H](NC(=O)OCc2ccccc2)c2ccc(OCc3ccccc3)c(Br)c2)c1
98 | > 25 µM | O=C(Nc1ccc2c(c1)CNC2)c1ncnc2[nH]ccc12
99 | 0.129 µM | O=C(NCC(F)F)[C@H](Nc1ccc2c(c1)CNC2)c1cc(Cl)ccc1OC[C@H]1CCCO1
100 | 80.3 µM | NC[C@H]1CC[C@H](CNC(=O)[C@@H](NC(=O)OCc2ccccc2)c2ccc(OCc3ccccc3)cc2)CC1
101 | > 25 µM | O=C1C[C@H]2CN(C(=O)Nc3ccc4c(c3)CNC4)CC[C@H]2N1
102 | 0.199 µM | O=C(NCC(F)F)[C@H](Nc1ccc2c(c1)CNC2)c1cc(F)cc2[nH]ccc12
103 | 97.6 µM | N#CC1(S(=O)(=O)N2CCC([C@H](NC(=O)OCc3ccccc3)C(=O)Nc3cccc(CN)c3)CC2)CCC1

— ChEMBL document CHEMBL5604062, “ASAP - ZIKV NS2B-NS3 protease fluorescence dose response” (2024)
